Holding throughout (assay type): in vivo
Assay [1] concerns Beet Armyworm (Spodoptera exigua, LAPHEG). Put plainly: Bioassays on Beet Armyworm (BAW), 128-well diet tray assay. To be noted: Spodoptera exigua. A digest of the protocol: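 Test molecule was dissolved in 90:10 acetone-water and applied at 50 μg/cm^2 onto artificial diet in eight wells, then dried. Second instar larvae, one to five per well, were added, and trays were kept vented at 25° C. with a 14:10 photoperiod for five to seven days before mortality was recorded.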

Assay [2] deals with Yellow Fever Mosquito (Aedes aegypti, AEDSAE). The following applies: for YFM rating: Table ABC / ABC-DP rating. A digest of the protocol:
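Rating-scale grades reflect larval mortality scored per well after 3 days at room temperature under non-evaporative lids. Larvae (~1 day old, hatched overnight in liver-powder water) were added to six daughter plates per compound, prepared from a 4000 ppm DMSO stock diluted in 90:10 water/acetone.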

The subject of assay [3] is Cabbage Looper (Trichoplusia ni, TRIPNI). Description: Bioassays on Cabbage Looper (CL), 128-well diet tray assay. To be noted: Trichoplusia ni. A digest of the protocol:
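Diet tray, 2nd instar, 1–5 larvae/well; 50 μg/cm^2 compound surface-applied (acetone:water 90:10), dried; 8 wells/treatment; 25° C, 14:10 L:D, 5–7 d; % mortality, mean of 8 wells.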

Setting [4] is: Beet Armyworm, rating class, read-out: BAW.
Setting [5] is: Yellow Fever Mosquito, rating class.
Where [6] appears, read: Cabbage Looper, rating class, read-out: CL.
Setting [7] is: Table ABC: Biological Results, species BAW, read-out: BAW.
[8] abbreviates: Table ABC: Biological Results, species YFM.
The mark [9] stands for this setting: Table ABC: Biological Results, species CL, read-out: CL.
The mark [10] stands for this setting: Beet Armyworm, Table ABC / ABC-DP rating, read-out: BAW rating.
Setting [11] is: Cabbage Looper, Table ABC / ABC-DP rating, read-out: CL rating.

We go through 14 compounds from patent US20250228239A1, “MOLECULES HAVING PESTICIDAL UTILITY, AND INTERMEDIATES, COMPOSITIONS, AND PROCESSES, RELATED THERETO” (priority 2024, published 2025).

SMILES strings stand for the structures. Like-named read-outs stand apart in the source and are kept apart here.

For `Cc1c(NC(=O)c2cc(NC(=O)[C@H]3[C@H](c4ccc(F)c(C(F)(F)F)c4)C3(Cl)Cl)ccc2Cl)cccc1NC(=O)C(F)(F)F` [F1451, 2-Chloro-5-((1R,3R)-2,2-dichloro-3-(4-fluoro-3-(trifluoromethyl)phenyl)cyclopropane-1-carboxamido)-N-(2-methyl-3-(2,2,2-trifluoroacetamido)phenyl)benzamide], the pest or weed control at 50 µg/cm2 in assay [1] (setting [4]) and in assay [3] (setting [6]) was 50 to 100% in each case. For the same compound, the YFM result in assay [2] (setting [5]) was “A (80–100)”.
Regarding `C=C(F)c1ccc(NC(=O)c2cc(NC(=O)[C@H]3[C@H](c4cc(Cl)cc(Cl)c4)C3(Cl)Cl)ccc2Cl)c(F)c1` (relative stereo) [F1320, trans-2-Chloro-5-(2,2-dichloro-3-(3,5-dichlorophenyl)cyclopropane-1-carboxamido)-N-(2-fluoro-4-(1-fluorovinyl)phenyl)benzamide], the pest or weed control at 50 µg/cm2 in assay [1] (setting [7]) and in assay [3] (setting [9]) was 50 to 100% in each case. In addition, in assay [2] (setting [8]), the YFM entry is reported as “A (80–100)”.
`O=C(Nc1ccc(F)c(NC(=O)C2CC2)c1F)c1cc(NC(=O)[C@H]2[C@H](c3ccc(F)c(C(F)(F)F)c3)C2(Cl)Cl)ccc1Cl` [F1264, 2-Chloro-N-(3-(cyclopropanecarboxamido)-2,4-difluorophenyl)-5-((1R,3R)-2,2-dichloro-3-(4-fluoro-3-(trifluoromethyl)phenyl)cyclopropane-1-carboxamido)benzamide]: the pest or weed control at 50 µg/cm2 in assay [1] (setting [7]) and in assay [3] (setting [9]) was 50 to 100% in each case. Moreover, the YFM result in assay [2] (setting [8]) is on record as “A (80–100)”.
`CC1(C)C(=O)CC1C(=O)Nc1c(F)ccc(NC(=O)c2cc(NC(=O)[C@H]3[C@H](c4ccc(F)c(C(F)(F)F)c4)C3(Cl)Cl)ccc2Cl)c1F` (stereo partly drawn) [F1507, 2-Chloro-5-((1R,3R)-2,2-dichloro-3-(4-fluoro-3-(trifluoromethyl)phenyl)cyclopropane-1-carboxamido)-N-(3-(2,2-dimethyl-3-oxocyclobutane-1-carboxamido)-2,4-difluorophenyl)benzamide]: the pest or weed control at 50 µg/cm2 in assay [1] (setting [4]) and in assay [3] (setting [6]) was 50 to 100% in each case. The YFM entry in assay [2] (setting [5]) is “A (80–100)”.
As to `O=C(Nc1ccc(F)c(NS(=O)(=O)c2ccccc2)c1F)c1cc(NC(=O)[C@H]2[C@H](c3ccc(F)c(C(F)(F)F)c3)C2(Cl)Cl)ccc1Cl` [F1295, 2-chloro-5-((1R,3R)-2,2-dichloro-3-(4-fluoro-3-(trifluoromethyl)phenyl)cyclopropane-1-carboxamido)-N-(2,4-difluoro-3-(phenylsulfonamido)phenyl)benzamide], the pest or weed control at 50 µg/cm2 in assay [1] (setting [7]) and in assay [3] (setting [9]) was 50 to 100% throughout. Moreover, the YFM result in assay [2] (setting [8]) was “A (80–100)”.
With `O=C(Nc1c(F)ccc(NC(=O)C(F)F)c1F)c1cc(NC(=O)[C@H]2[C@H](c3cc(Cl)c(Cl)c(Cl)c3)C2(Cl)Cl)ccc1F` [F1555, 5-((1R,3R)-2,2-Dichloro-3-(3,4,5-trichlorophenyl)cyclopropane-1-carboxamido)-N-(3-(2,2-difluoroacetamido)-2,6-difluorophenyl)-2-fluorobenzamide], the pest or weed control at 50 µg/cm2 in assay [1] (setting [4]) and in assay [3] (setting [6]) was 50 to 100% in each case. In addition, the YFM entry in assay [2] (setting [5]) is listed as “A (80–100)”.
Regarding `O=C(NCC(F)(F)F)c1cc(NC(=O)[C@H]2[C@@H](c3cc(F)c(F)c(Br)c3)C2(Cl)Cl)ccc1Cl` (relative stereo) [F2004, cis-5-(3-(3-Bromo-4,5-difluorophenyl)-2,2-dichlorocyclopropane-1-carboxamido)-2-chloro-N-(2,2,2-trifluoroethyl)benzamide], the pest or weed control at 50 µg/cm2 in assay [1] (setting [10]) and in assay [3] (setting [11]) was 50 to 100% in each case. Also, the YFM rating entry in assay [2] (Yellow Fever Mosquito) is recorded as “A (80–100)”.
Turning to `CC(=O)NCCCNC(=O)c1cc(NC(=O)[C@H]2[C@H](c3cc(Cl)cc(Cl)c3)C2(Cl)Cl)ccc1Cl` (relative stereo) [F2067, trans-N-(3-Acetamidopropyl)-2-chloro-5-(2,2-dichloro-3-(3,5-dichlorophenyl)cyclopropane-1-carboxamido)benzamide], the pest or weed control at 50 µg/cm2 in assay [1] (setting [10]) and in assay [3] (setting [11]) was 50 to 100% each time. Also, the YFM rating entry in assay [2] (Yellow Fever Mosquito) is listed as “A (80–100)”.
`O=C(NCC(F)(F)c1ccccc1)c1cc(NC(=O)[C@H]2[C@H](c3cc(Cl)cc(Cl)c3)C2(Cl)Cl)ccc1Cl` (relative stereo) [F2077, trans-2-Chloro-5-(2,2-dichloro-3-(3,5-dichlorophenyl)cyclopropane-1-carboxamido)-N-(2,2-difluoro-2-phenylethyl)benzamide]: the pest or weed control at 50 µg/cm2 in assay [1] (setting [10]) and in assay [3] (setting [11]) was 50 to 100% throughout. For the same compound, the YFM rating result in assay [2] (Yellow Fever Mosquito) is reported as “B (More than 0 – Less than 80)”.
As for `CC(=O)Nc1cc(F)c(F)cc1NC(=O)c1cc(NC(=O)[C@H]2[C@H](c3cc(Cl)cc(Cl)c3)C2(Cl)Cl)ccc1Cl` (relative stereo) [F1634, trans-N-(2-Acetamido-4,5-difluorophenyl)-2-chloro-5-(2,2-dichloro-3-(3,5-dichlorophenyl)cyclopropane-1-carboxamido)benzamide], the pest or weed control at 50 µg/cm2 in assay [1] (setting [4]) and in assay [3] (setting [6]) was 50 to 100% in each case. Also, the YFM result in assay [2] (setting [5]) is reported as “B (More than 0 – Less than 80)”.
For `COCC(=O)N(C)c1c(F)ccc(NC(=O)c2cc(NC(=O)[C@H]3[C@H](c4ccc(Cl)c(Cl)c4)C3(Cl)Cl)ccc2Cl)c1F` [F1630, 2-Chloro-5-((1R,3R)-2,2-dichloro-3-(3,4-dichlorophenyl)cyclopropane-1-carboxamido)-N-(2,4-difluoro-3-(2-methoxy-N-methylacetamido)phenyl)benzamide], the pest or weed control at 50 µg/cm2 in assay [1] (setting [4]) and in assay [3] (setting [6]) was 50 to 100% each time. Moreover, in assay [2] (setting [5]), the YFM entry was “A (80–100)”.
As for `C=Cc1cc(F)ccc1NC(=O)c1cc(NC(=O)[C@H]2[C@H](c3cc(Cl)cc(Cl)c3)C2(Cl)Cl)ccc1Cl` (relative stereo) [F1312, trans-2-Chloro-5-(2,2-dichloro-3-(3,5-dichlorophenyl)cyclopropane-1-carboxamido)-N-(4-fluoro-2-vinylphenyl)benzamide], the pest or weed control at 50 µg/cm2 in assay [1] (setting [7]) and in assay [3] (setting [9]) was 50 to 100% throughout. In addition, the YFM entry in assay [2] (setting [8]) was “A (80–100)”.
Consider `CN(C(=O)c1cc(NC(=O)[C@H]2[C@H](c3ccc(F)c(C(F)(F)F)c3)C2(Cl)Cl)ccc1Cl)c1ccc(F)c(N)c1F` (relative stereo) [F1112, trans-N-(3-amino-2,4-difluorophenyl)-2-chloro-5-(2,2-dichloro-3-(4-fluoro-3-(trifluoromethyl)phenyl)cyclopropane-1-carboxamido)-N-methylbenzamide], for which the pest or weed control at 50 µg/cm2 in assay [1] (setting [7]) and in assay [3] (setting [9]) was 50 to 100% each time. The YFM result in assay [2] (setting [8]) is recorded as “A (80–100)”.
Regarding `O=C(Nc1ccc(F)cc1F)c1cc(NC(=O)[C@H]2[C@H](c3cccc(S(F)(F)(F)(F)F)c3)C2(Cl)Cl)ccc1Cl` (relative stereo) [F1090, trans-2-Chloro-5-(2,2-dichloro-3-(3-(pentafluoro-λ^6-sulfanyl)phenyl)cyclopropane-1-carboxamido)-N-(2,4-difluorophenyl)benzamide], the pest or weed control at 50 µg/cm2 in assay [1] (setting [7]) and in assay [3] (setting [9]) was 50 to 100% in each case. Further, in assay [2] (setting [8]), the YFM entry is reported as “A (80–100)”.
